System: non-substance dependent individual
Experiment: Case report: Flumazenil nasal spray before business dinners, control of alcohol intake
Assay type: in vivo
Text: As in the co-pending applications, medication sprays are used to accomplish the above noted tasks. any one of several technologies may be used: • 1) A nasal spray applicator affecting the vein endings in the mucosal membranes of the nasal passage; • 2) A mouth spray affecting the buccal mucosal membrane in the mouth area; • 3) A pulmonary inhaler aerosolization into the lungs; • 4) Any other delivery system that provides direct absorption through mucus membranes directly into the blood stream. For example, the nasal spray may be used by an individual to assist in maintaining control of his or her drinking on a frequent or daily basis because they or their loved ones feel their use of alcohol is excessive. The spray will also act as a behavior trigger to assist in reminding the individual or retraining the individual to mind the frequency, amount or setting of intake of alcohol. In this setting of spray-assisted control of alcohol use there is provided a positive reinforcement of successful moderation, and eventually, the spray assist should no longer be needed. From several hours before, and including even while the individual is already drinking, the user of this nasal spray simply squirts one to three doses into each nostril in order to substantially decrease the total consumption of alcohol at any one drinking session. The duration of the effect will vary from individual to individual. The administration of the spray may be repeated as often as one wishes over the period or course of drinking to achieve the desired results, that is, a reduction in the use of alcohol, whether in total amount or in rapidity of alcohol ingestion. Case Report: A non-substance dependent individual ([…]) used this nasal spray by spraying two squirts of the medication “Flumazenil” into each nostril before business dinners on two separate occasions. Without this medication, their usual pattern was the ingestion of one to two martinis before and at the beginning of the meal, followed by one to two glasses of wine during and after the meal.

`CCOC(=O)c1ncn2c1CN(C)C(=O)c1cc(F)ccc1-2` [Flumazenil] was tested, and the “effect of the alcohol on their thinking and feeling” value (two squirts into each nostril before business dinner, each of two occasions, self-reported) was “less of an effect on their thinking and feeling than usual”, the “actual intake of wine” value (two squirts into each nostril before business dinner, each of two occasions, usual pattern without medication one to two glasses of wine) was “less than one glass of wine” and the “actual intake of martini” value (two squirts into each nostril before business dinner, each of two occasions, usual pattern without medication one to two martinis) was “less than one martini”. The “interest in the alcoholic beverages” value (two squirts into each nostril before business dinners, two separate occasions, one individual) was “substantially reduced”.
